Assay [1] concerns Aβ42. Nature of the assay: HEK assay: Aβ42 secreted to cell medium, Meso Scale Discovery electrochemiluminescence. It counts as cell-based. The settings on record: Homo sapiens, HEK293; HEK cell line stably expressing APPswe; 4-6 hours incubation with test compound; read-out: pIC50 Aβ42 HEK assay (converted). The procedure: Compounds were diluted in 100% DMSO and stored at […] prior to use. Human Embryonic Kidney (HEK) cell line stably expressing APP with the Swedish mutation (APPswe) was cultured using Dulbecco's Modified Eagles medium (DMEM) supplied with […] glucose, Na-pyruvate and GlutaMAX, 10% Foetal bovine serum, 100 U/mL penicillin-streptomycin (PEST), 1× non-essential amino acids (NEAA), […] Hepes, 100 μg/mL Zeocine. Cells at about 80% confluence were washed with PBS, detached from culture flasks using 1× Trypsin/EDTA diluted in PBS, re-suspended in cell media and plated in 384-well poly-d-lysine coated cell culture plates at about 10000-15000 cells/well, in 25 μL cell media. Optionally, cryo-preserved cells (frozen and stored at −140° C. in 90% cell media and 10% DMSO) were thawed, washed and plated as above. Next the cells were incubated for 15-24 h at 37° C. and 5% CO2, after which cell medium was changed. Fresh medium containing test compound diluted ×200 from prepared compound plate was added to the cells before further incubation for 4-6 hours at 37° C. and 5% CO2. After incubation with test compound the amount of Aβ peptides, including Aβ42, Aβ40, Aβ39, Aβ38 and Aβ37, secreted to cell medium was analyzed using the electrochemiluminescence assay technology from Meso Scale Discovery Technology, in combination with specific antibodies raised against the different Aβ peptides. Potential cytotoxic effects of the compounds were assayed by measuring the ATP content (ViaLight) from cell lysate.

Assay [2] concerns Aβ42. Put plainly: PCN assay: Aβ42 secreted by primary cortical neuronal cells, ELISA. The settings on record: primary cortical neuronal cells from 16-day mouse embryos; 16-20 hours incubation with test compound; read-out: pIC50 Aβ42 PCN assay (converted). It is filed as cell-based. How it is done:
Compounds were diluted in 100% DMSO and stored at […] prior to use. Primary cortical neuronal cells (PCN) were isolated from 16-day mouse embryos and cultured in Ham's F12 media containing 10% Foetal bovine serum, 10 mM Hepes, 2 mM L-glutamine and 100 U/mL Penicillin-Streptomycin. 150000-250000 cells/well, in 200 μL cell media were seeded onto 96-well poly-D-Lysine coated plates. After incubation at 37° C., 5% CO2 for five days, the media was exchanged for fresh medium containing test compound diluted ×100, before further incubation for 16-20 hours at 37° C. and 5% CO2. After incubation with test compound the amount of […] secreted to cell medium was analyzed using the solid phase sandwich Enzyme-Linked-Immuno-Sorbent Assay (ELISA)-kit from Invitrogen for detection of mouse βAmyloid 1-42. Potential cytotoxic effects of the compounds were assayed by measuring the ATP content (Via Light) from cell lysate.
On the technique in general: ELISA stands for enzyme-linked immunosorbent assay.

The text below walks through data of patent US9439904B2, “Pyrimidine compounds and their use as gamma secretase modulators” (Acturum Life Science AB, priority 2013, dated 2016).

In the case of `COc1cc(Nc2nc(COC(CF)CF)cc(C(C)(C)O)n2)ccc1-n1cnc(C)c1` [Example 50, 2-(6-((1,3-Difluoropropan-2-yloxy)methyl)-2-(3-methoxy-4-(4-methyl-1H-imidazol-1-yl)phenylamino)pyrimidin-4-yl)propan-2-ol], the IC50 in assay [1] was 79.4 nM; in assay [2], 63.1 nM.

For the compound `COc1cc(Nc2nc(COCC(F)(F)F)cc(NCCC#N)n2)ccc1-n1cnc(C)c1` [Example 38, 3-(2-(3-Methoxy-4-(4-methyl-1H-imidazol-1-yl)phenylamino)-6-((2,2,2-trifluoroethoxy)-methyl)pyrimidin-4-ylamino)propanenitrile], the IC50 in assay [1] was 50.1 nM; in assay [2] it was 39.8 nM.

With `COc1cc(Nc2nc(COCC(F)(F)F)cc(N3CCC3)n2)ccc1-c1cnnc(C)c1` [Example 21, 4-(Azetidin-1-yl)-N-(3-methoxy-4-(6-methylpyridazin-4-yl)phenyl)-6-((2,2,2-trifluoroethoxy)methyl)pyrimidin-2-amine], the IC50 in assay [1] was 126 nM; in assay [2], 50.1 nM.

Take `COc1cc(Nc2nc(COCC3CC(F)(F)C3)cc(C(C)(C)O)n2)ccc1-n1cnc(C)c1` [Example 17, 2-(6-(((3,3-Difluorocyclobutyl)methoxy)methyl)-2-(3-methoxy-4-(4-methyl-1H-imidazol-1-yl)phenylamino)pyrimidin-4-yl)propan-2-ol]: the IC50 in assay [1] and in assay [2] was 200 nM each time.

Regarding `COc1cn(-c2ccc(Nc3nc(COCC(F)(F)F)cc(C(C)(C)O)n3)cc2OC)cn1` [Example 32, 2-(2-(3-Methoxy-4-(4-methoxy-1H-imidazol-1-yl)phenylamino)-6-((2,2,2-trifluoroethoxy)-methyl)pyrimidin-4-yl)propan-2-ol], the values for the IC50 in assay [1] and in assay [2] were 100 nM and 316 nM, respectively.

As to `COc1cc(Nc2nc(COCC(F)(F)F)cc(CN3CC(F)C3)n2)ccc1-n1cnc(C)c1` [Example 40, 4-((3-Fluoroazetidin-1-yl)methyl)-N-(3-methoxy-4-(4-methyl-1H-imidazol-1-yl)phenyl)-6-((2,2,2-trifluoroethoxy)methyl)pyrimidin-2-amine], the IC50 is 126 nM in assay [1] and 100 nM in assay [2].

As for `CNc1cc(COCC(F)(F)F)nc(Nc2ccc(-n3cnc(C)c3)c(OC)c2)n1` [Example 9, N^2-(3-Methoxy-4-(4-methyl-1H-imidazol-1-yl)phenyl)-N4-methyl-6-((2,2,2-trifluoroethoxy)methyl)pyrimidine-2,4-diamine], the IC50 in assay [1] was 25.1 nM; in assay [2], 31.6 nM.

In the case of `COc1cc(Nc2nc(C(C)OCC(F)(F)F)cc(C(C)(C)O)n2)ccc1-n1cnc(C)c1` (stereo not shown) [Example 11, 2-(2-(3-Methoxy-4-(4-methyl-1H-imidazol-1-yl)phenylamino)-6-(1-(2,2,2-trifluoroethoxy)ethyl)pyrimidin-4-yl)propan-2-ol], the IC50 was 25.1 nM in assay [1] and 50.1 nM in assay [2].

In the case of `COc1cc(Nc2nc(COCC(F)(F)F)c(C)c(C(C)(C)O)n2)ccc1-n1cnc(C)c1` [Example 5, 2-(2-(3-Methoxy-4-(4-methyl-1H-imidazol-1-yl)phenylamino)-5-methyl-6-((2,2,2-trifluoroethoxy)methyl)pyrimidin-4-yl)propan-2-ol], the IC50 in assay [1] and in assay [2] was 20 nM each time.

As to `COc1cc(Nc2nc(COCC3CC3)cc(N3CCC3)n2)ccc1-n1cnc(C)c1` [Example 1, 4-(Azetidin-1-yl)-6-((cyclopropylmethoxy)methyl)-N-(3-methoxy-4-(4-methyl-1H-imidazol-1-yl)phenyl)pyrimidin-2-amine], the IC50 in assay [1] was 20 nM; in assay [2] it was 50.1 nM.

With `COc1cc(Nc2nc(COCC(F)(F)F)cc(NC3COC3)n2)ccc1-n1cnc(C)c1` [Example 35, N^2-(3-Methoxy-4-(4-methyl-1H-imidazol-1-yl)phenyl)-N^4-(oxetan-3-yl)-6-((2,2,2-trifluoroethoxy)methyl)pyrimidine-2,4-diamine], the IC50 in assay [1] was 50.1 nM; in assay [2], 25.1 nM.

For the compound `COc1cc(Nc2nc(COCC(F)(F)F)cc(N3CCC(F)(F)CC3)n2)ccc1-c1cnnc(C)c1` [Example 22, 4-(4,4-Difluoropiperidin-1-yl)-N-(3-methoxy-4-(6-methylpyridazin-4-yl)phenyl)-6-((2,2,2-trifluoroethoxy)methyl)pyrimidin-2-amine], the values for the IC50 in assay [1] and in assay [2] were 79.4 nM and 63.1 nM, respectively.

Consider `COc1cc(Nc2nc(COCC(F)(F)F)cc(C(C)(C)O)n2)ccc1-n1cnc(C)c1` [Example 15, 2-(2-(3-Methoxy-4-(4-methyl-1H-imidazol-1-yl)phenylamino)-6-((2,2,2-trifluoroethoxy)-methyl)pyrimidin-4-yl)propan-2-ol], for which the IC50 in assay [1] is 31.6 nM; in assay [2], 50.1 nM.

In the case of `COc1cc(Nc2nc(COCC(F)(F)F)cc(N3CCC(F)(F)CC3)n2)ccc1-n1cnc(C)c1` [Example 26, 4-(4,4-Difluoropiperidin-1-yl)-N-(3-methoxy-4-(4-methyl-1H-imidazol-1-yl)phenyl)-6-((2,2,2-trifluoroethoxy)methyl)pyrimidin-2-amine], the results for the IC50 in assay [1] and in assay [2] were 50.1 nM and 20 nM, respectively.

With `CCC(C)(O)c1cc(COCC(F)(F)F)nc(Nc2ccc(-n3cnc(C)c3)c(OC)c2)n1` (stereo not shown) [Example 45, 2-(2-(3-Methoxy-4-(4-methyl-1H-imidazol-1-yl)phenylamino)-6-((2,2,2-trifluoroethoxy)-methyl)pyrimidin-4-yl)butan-2-ol], the IC50 was 50.1 nM in assay [1] and 63.1 nM in assay [2].

Consider `COc1cc(Nc2nc(COCC(F)(F)F)cc(C(O)CC3CC3)n2)ccc1-n1cnc(C)c1` (stereo not shown) [Example 13, 2-Cyclopropyl-1-(2-(3-methoxy-4-(4-methyl-1H-imidazol-1-yl)phenylamino)-6-((2,2,2-trifluoroethoxy)methyl)pyrimidin-4-yl)ethanol], for which the figures for the IC50 in assay [1] and in assay [2] were 20 nM and 50.1 nM, respectively.

Consider `COc1cc(Nc2nc(COCCC(F)(F)F)cc(C(C)(C)O)n2)ccc1-n1cnc(C)c1` [Example 18, 2-(2-(3-Methoxy-4-(4-methyl-1H-imidazol-1-yl)phenylamino)-6-((3,3,3-trifluoropropoxy)-methyl)pyrimidin-4-yl)propan-2-ol], for which the IC50 in assay [1] is 63.1 nM; in assay [2], 100 nM.

`CNc1nc(Nc2ccc(-n3cnc(C)c3)c(OC)c2)nc(COCC(F)(F)F)c1C` [Example 4, N^2-(3-Methoxy-4-(4-methyl-1H-imidazol-1-yl)phenyl)-N^4,5-dimethyl-6-((2,2,2-trifluoroethoxy)methyl)pyrimidine-2,4-diamine]: the IC50 in assay [1] was 25.1 nM; in assay [2] it was 10 nM.

On to `COc1cc(Nc2nc(COCC(F)(F)F)c(C)c(C(C)O)n2)ccc1-n1cnc(C)c1` (stereo not shown) [Example 6, 1-(2-(3-Methoxy-4-(4-methyl-1H-imidazol-1-yl)phenylamino)-5-methyl-6-((2,2,2-trifluoroethoxy)methyl)pyrimidin-4-yl)ethanol], for which the IC50 in assay [1] and in assay [2] was 31.6 nM throughout.

With `COc1cc(Nc2nc(COCC(F)(F)F)cc(NC(C)C)n2)ccc1-n1cnc(C)c1` [Example 8, N^4-Isopropyl-N^2-(3-methoxy-4-(4-methyl-1H-imidazol-1-yl)phenyl)-6-((2,2,2-trifluoroethoxy)methyl)pyrimidine-2,4-diamine], the IC50 in assay [1] is 31.6 nM; in assay [2] it was 20 nM.

`CNc1cc(COCC(F)(F)F)nc(Nc2ccc(-c3cnnc(C)c3)c(OC)c2)n1` [Example 24, N^2-(3-Methoxy-4-(6-methylpyridazin-4-yl)phenyl)-N^4-methyl-6-((2,2,2-trifluoroethoxy)-methyl)pyrimidine-2,4-diamine]: the values for the IC50 in assay [1] and in assay [2] were 100 nM and 79.4 nM, respectively.

On to `CNc1cc(COCC(F)(F)F)nc(Nc2ccc(-n3cnc(C)c3)cc2)n1` [Example 2, N^4-Methyl-N^2-(4-(4-methyl-1H-imidazol-1-yl)phenyl)-6-((2,2,2-trifluoroethoxy)methyl)-pyrimidine-2,4-diamine], for which the IC50 in assay [1] is 31.6 nM; in assay [2], 63.1 nM.

Regarding `COc1cc(Nc2nc(COCC(F)(F)F)cc(C(C)O)n2)ccc1-n1cnc(C)c1` (stereo not shown) [Example 44, 1-(2-(3-Methoxy-4-(4-methyl-1H-imidazol-1-yl)phenylamino)-6-((2,2,2-trifluoroethoxy)-methyl)pyrimidin-4-yl)ethanol], the IC50 in assay [1] is 50.1 nM; in assay [2], 100 nM.
